Source: US7728012B2, “Carboxamide compounds and their use as calpain inhibitors” (Abbott GmbH & Co. KG, priority 2006, dated 2010)

Tests used:
Assay type in all cases: biochemical
[1] = target: T1, calpain-I isolated from human erythrocytes (Homo sapiens, UniProt P07384); experiment: Calpain I kinetic fluorescence enzyme inhibition assay; conditions: apparent Ki from IC50 by Cheng-Prussoff; average of 2 to 4 dose-effect plots
T1 construct: calpain-I—isolated from human erythrocytes; purchased Calbiochem 208713; host or cells: human erythrocytes (tissue isolate)
T1 sequence (P07384 1-714): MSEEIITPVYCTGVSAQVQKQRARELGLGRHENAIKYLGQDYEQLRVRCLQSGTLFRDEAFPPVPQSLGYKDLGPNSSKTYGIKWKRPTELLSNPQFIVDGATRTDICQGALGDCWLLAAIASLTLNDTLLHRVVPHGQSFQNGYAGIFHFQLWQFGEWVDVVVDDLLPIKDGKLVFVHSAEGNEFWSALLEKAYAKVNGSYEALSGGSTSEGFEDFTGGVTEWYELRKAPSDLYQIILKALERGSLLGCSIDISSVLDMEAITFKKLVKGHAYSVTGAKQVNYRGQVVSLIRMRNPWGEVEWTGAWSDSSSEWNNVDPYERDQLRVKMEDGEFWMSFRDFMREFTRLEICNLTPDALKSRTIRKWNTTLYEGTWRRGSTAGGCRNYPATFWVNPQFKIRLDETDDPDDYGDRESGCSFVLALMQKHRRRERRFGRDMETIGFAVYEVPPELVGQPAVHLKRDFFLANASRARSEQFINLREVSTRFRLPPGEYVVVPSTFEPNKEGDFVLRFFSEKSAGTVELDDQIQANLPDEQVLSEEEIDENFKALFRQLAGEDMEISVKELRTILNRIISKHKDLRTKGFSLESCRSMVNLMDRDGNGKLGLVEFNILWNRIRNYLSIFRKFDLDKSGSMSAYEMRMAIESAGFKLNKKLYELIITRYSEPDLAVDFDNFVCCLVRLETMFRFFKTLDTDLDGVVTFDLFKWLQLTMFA
T1 sequence (P04632 1-268 partner): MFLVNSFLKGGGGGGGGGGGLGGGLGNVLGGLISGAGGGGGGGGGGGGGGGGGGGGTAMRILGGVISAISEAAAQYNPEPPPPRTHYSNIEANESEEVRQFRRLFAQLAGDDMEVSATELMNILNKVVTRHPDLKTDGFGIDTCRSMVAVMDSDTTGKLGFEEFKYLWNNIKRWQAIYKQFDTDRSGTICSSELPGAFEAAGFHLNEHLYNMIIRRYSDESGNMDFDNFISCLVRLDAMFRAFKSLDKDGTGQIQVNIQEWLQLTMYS

[2] = target: T2, cathepsin K activated from recombinant human procathepsin K (Homo sapiens, UniProt P43235); experiment: Cathepsin K kinetic fluorescence enzyme inhibition assay; conditions: selectivity ratio versus calpain I
T2 construct: purchased Calbiochem 342001; host or cells: E. coli
T2 sequence (P43235 115-329): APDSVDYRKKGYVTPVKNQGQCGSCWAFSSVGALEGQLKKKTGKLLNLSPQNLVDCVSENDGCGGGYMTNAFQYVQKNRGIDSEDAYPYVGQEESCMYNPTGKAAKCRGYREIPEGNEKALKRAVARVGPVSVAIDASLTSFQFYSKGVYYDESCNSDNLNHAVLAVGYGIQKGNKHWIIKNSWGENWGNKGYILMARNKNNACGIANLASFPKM
Description: (§1) The following solutions and buffers were employed: • HBS (for 40 ml): 800 μl M HEPES; 2.16 ml 100 mM KCl; 4.8 ml 1M NaCl; 3.59 ml 5% glucose; 60 μl μM MgSO4; 400 μl 100 mM Na pyruvate, 28.19 ml water; pH 7.2-7.5. • lysis buffer (for 20 ml): 400 μl M Tris pH 8.2; 2.74 ml 1M NaCl; 520 μl 0.5M EDTA; 2 ml 10% triton X-100; 0.8 ml (=1:25) CompletePlus (1 tablet/2 ml H2O); 200 μl 100 mM Pefabloc; 13.34 ml water, pH 8.2. • TBST (10×) (for 1 l): 100 mM Tris (12.1 g); 1.5M NaCl (87 g); 1% Tween 20 (10 g), adjusted to pH 8. I Enzyme Inhibition In Vitro: • Testing for blockade of the corresponding enzymic activities was carried out by means of kinetic fluorescence assays (excitation 390 nm, emission 460 nm). • Apparent Ki values were calculated from the experimentally determined IC50 values by the Cheng-Prussoff relation assuming a reversible competitive enzyme inhibition. The Km values of the substrates used under the assay conditions indicated above were: 90 μM (Z-Phe-Arg-AMC, cathepsin B), 10 μM (Z-Gly-Pro-Arg-AMC, cathepsin K), 2 μM (Z-Phe-Arg-AMC, cathepsin L), and 30 μM (Z-Val-Val-Arg-AMC, cathepsin S). • The indicated Ki values are averages of the inhibition constants calculated on the basis of 2 to 4 independent dose-effect plots.
(§2) The following assays were used: • 1. Calpain I: • 20 nM calpain-I—isolated from human erythrocytes (Calbiochem #208713), 100 μM Suc-Leu-Tyr-AMC (Bachem #1-1355) as substrate in buffer with 62 mM imidazole, 0.3 mM CaCl2, 0.10% CHAPS, 0.05% BSA, 1 mM DTT at pH 7.3 and room temperature. • 2. Cathepsin B: • 0.25 nM cathepsin B—isolated from human liver (Calbiochem #219362), 100 μM Z-Phe-Arg-AMC (Bachem #I-1160) as substrate 50 mM MES, 2 mM EDTA, 0.05% Brij 35, 2.5 mM L-cysteine, pH 6.0, room temperature. • 3. Cathepsin K: • 3 nM cathepsin K—activated from recombinant human procathepsin K from E. coli (Calbiochem #342001), 10 μM Z-Gly-Pro-Arg-AMC (Biomol #P-142) as substrate in 50 mM MES, 2 mM EDTA, 0.05% Brij 35, 2.5 mM L-cysteine, pH 6.0, room temperature. • 4. Cathepsin L: • 1 nM cathepsin L—isolated from human liver (Calbiochem #219402), 2 μM Z-Phe-Arg-AMC (Bachem #1-1160) as substrate in 50 mM MES, 2 mM EDTA, 0.05% Brij 35, 2.5 mM L-cysteine, pH 6.0, room temperature. • 5. Cathepsin S: • 0.5 nM recombinant human cathepsin S from E. coli (Calbiochem #219343), 20 μM Z-Val-Val-Arg-AMC (Bachem #1-1540) as substrate in 50 mM MES, 2 mM EDTA, 0.05% Brij 35, 2.5 mM L-cysteine, pH 6.0, room temperature. • The results of the in vitro determination are indicated in Table 1. The following abbreviations are used in Table 1: • The “Calpain activity” column, ++ stands for a calpain Ki (Ki(calpain)) of ≦40 nM and + means: 40 nM<Ki(Calpain)≦100 nM. • The “Sel. cat. B” column indicates the Ki(cathepsin B)/Ki(calpain) ratio. In this connection, ++ means a Ki(cathepsin B)/Ki(calpain) ratio of ≧30 and + means 10≦Ki(cathepsin B)/Ki(calpain)<30. • The “Sel. cat. K” column indicates the Ki(cathepsin K)/Ki(calpain) ratio. In this connection, ++ means a Ki(cathepsin K)/Ki(calpain) ratio of ≧30 and + means 10≦Ki(cathepsin K)/Ki(calpain)<30. • The “Sel. cat. L” column indicates the Ki(cathepsin L)/Ki(calpain) ratio. In this connection, ++ means a Ki(cathepsin L)/Ki(calpain) ratio of ≧50 and + means 30≦Ki(cathepsin L)/Ki(calpain)<50. • The “Sel. cat. S” column indicates the Ki(cathepsin S)/Ki(calpain) ratio. In this connection, ++ means a Ki(cathepsin S)/Ki(calpain) ratio of ≧100 and + means 50≦Ki(cathepsin S)/Ki(calpain)<100.

[3] = target: T3, cathepsin L isolated from human liver (Homo sapiens, UniProt P07711); experiment: Cathepsin L kinetic fluorescence enzyme inhibition assay; conditions: selectivity ratio versus calpain I
T3 construct: cathepsin L—isolated from human liver; purchased Calbiochem 219402; host or cells: human liver (tissue isolate)
T3 sequence (P07711 114-333): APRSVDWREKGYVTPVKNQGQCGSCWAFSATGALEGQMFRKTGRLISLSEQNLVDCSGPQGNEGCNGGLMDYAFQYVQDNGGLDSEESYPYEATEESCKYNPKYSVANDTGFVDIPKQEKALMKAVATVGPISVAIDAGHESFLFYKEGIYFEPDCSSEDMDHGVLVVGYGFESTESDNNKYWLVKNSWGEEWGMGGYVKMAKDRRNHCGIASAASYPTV
Summary of the method: (§3)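 Kinetic fluorescence (ex 390/em 460 nm) at room temperature in 50 mM MES, 2 mM EDTA, 0.05% Brij 35, 2.5 mM L-cysteine, pH 6.0. Cathepsin B (liver, 0.25 nM) with 100 μM Z-Phe-Arg-AMC; cathepsin L (liver, 1 nM) with 2 μM Z-Phe-Arg-AMC; recombinant E. coli cathepsin S (0.5 nM) with 20 μM Z-Val-Val-Arg-AMC. Ki via Cheng-Prusoff.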

[4] = target: T4, recombinant human cathepsin S (Homo sapiens, UniProt P25774); experiment: Cathepsin S kinetic fluorescence enzyme inhibition assay; conditions: selectivity ratio versus calpain I
T4 construct: purchased Calbiochem 219343; host or cells: E. coli
T4 sequence (P25774 115-331): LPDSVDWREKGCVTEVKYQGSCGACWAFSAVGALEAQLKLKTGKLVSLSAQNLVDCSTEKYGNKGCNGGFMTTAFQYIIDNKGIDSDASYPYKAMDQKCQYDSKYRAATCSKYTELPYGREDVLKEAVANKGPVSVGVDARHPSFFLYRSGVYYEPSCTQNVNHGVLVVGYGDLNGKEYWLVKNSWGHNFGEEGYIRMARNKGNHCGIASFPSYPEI
Summary of the method: as §3

[5] = target: T5, cathepsin B isolated from human liver (Homo sapiens, UniProt P07858); experiment: Cathepsin B kinetic fluorescence enzyme inhibition assay; conditions: selectivity ratio versus calpain I
T5 construct: cathepsin B—isolated from human liver; purchased Calbiochem 219362; host or cells: human liver (tissue isolate)
Description: as §1, §2

Structure (SMILES) | Ki [1] [nM] | Sel cat. K (Ki(cathepsin K)/Ki(calpain) ratio) [2] | Sel cat. B (Ki(cathepsin B)/Ki(calpain) ratio) [5] | Sel cat. L (Ki(cathepsin L)/Ki(calpain) ratio) [3] | Sel cat. S (Ki(cathepsin S)/Ki(calpain) ratio) [4]
NC(=O)C(=O)C(Cc1ccccc1)NC(=O)c1cccnc1-n1ccc(-c2ccc3c(c2)CCO3)n1 (centres unmarked) [Example 75, N-(3-Amino-1-benzyl-2,3-dioxopropyl)-2-[3-(2,3-dihydrobenzo[b]furan-5-yl)-1H-pyrazol-1-yl]nicotinamide] | 40 to 100 | + (10≦Ki(cathepsin K)/Ki(calpain)<30) |  | ++ (Ki(cathepsin L)/Ki(calpain) ratio of ≧50) | ++ (Ki(cathepsin S)/Ki(calpain) ratio of ≧100)
NC(=O)C(=O)C(Cc1cccs1)NC(=O)c1cccnc1-n1ccc(-c2ccccc2)n1 (centres unmarked) [Example 40, N-[3-Amino-2,3-dioxo-1-(2-thienylmethyl)propyl]-2-(3-phenyl-1H-pyrazol-1-yl)pyridine-3-carboxamide] | ≤ 40 |  | + (10≦Ki(cathepsin B)/Ki(calpain)<30) | ++ (Ki(cathepsin L)/Ki(calpain) ratio of ≧50) | ++ (Ki(cathepsin S)/Ki(calpain) ratio of ≧100)
N#Cc1cnc(-n2ccc(-c3ccccc3F)n2)c(C(=O)NC(Cc2ccccc2)C(=O)C(N)=O)c1 (centres unmarked) [Example 188, N-[3-Amino-2,3-dioxo-1-(phenylmethyl)propyl]-5-cyano-2-[3-(2-fluorophenyl)-1H-pyrazol-1-yl]pyridine-3-carboxamide] | 40 to 100 | ++ (Ki(cathepsin K)/Ki(calpain) ratio of ≧30) |  | ++ (Ki(cathepsin L)/Ki(calpain) ratio of ≧50) | 
CN1CCN(c2ccc(-c3ccn(-c4ncccc4C(=O)NC(Cc4ccccc4)C(=O)C(N)=O)n3)cc2)CC1 (centres unmarked) [Example 68, N-(3-Amino-1-benzyl-2,3-dioxopropyl)-2-{3-[4-(4-methylpiperazin-1-yl)phenyl]-1H-pyrazol-1-yl}nicotinamide] | 40 to 100 | + (10≦Ki(cathepsin K)/Ki(calpain)<30) |  |  | ++ (Ki(cathepsin S)/Ki(calpain) ratio of ≧100)
NC(=O)C(=O)C(Cc1ccc(Br)cc1)NC(=O)c1cccnc1-n1ccc(-c2ccccc2)n1 (centres unmarked) [Example 122, N-{3-Amino-1-[(4-bromophenyl)methyl]-2,3-dioxopropyl}-2-(3-phenyl-1H-pyrazol-1-yl)pyridine-3-carboxamide] | ≤ 40 |  | ++ (Ki(cathepsin B)/Ki(calpain) ratio of ≧30) | ++ (Ki(cathepsin L)/Ki(calpain) ratio of ≧50) | ++ (Ki(cathepsin S)/Ki(calpain) ratio of ≧100)

Now from value to compound, other results behind:

Ki [1] [nM] | Sel cat. K (Ki(cathepsin K)/Ki(calpain) ratio) [2] | Sel cat. B (Ki(cathepsin B)/Ki(calpain) ratio) [5] | Structure (SMILES) | Sel cat. L (Ki(cathepsin L)/Ki(calpain) ratio) [3] | Sel cat. S (Ki(cathepsin S)/Ki(calpain) ratio) [4]
≤ 40 |  | + (10≦Ki(cathepsin B)/Ki(calpain)<30) | Cc1cn(-c2ncccc2C(=O)NC(Cc2ccccc2)C(=O)C(N)=O)nc1-c1ccccc1 (centres unmarked) [Example 84, N-(3-Amino-1-benzyl-2,3-dioxopropyl)-2-(4-methyl-3-phenyl-1H-pyrazol-1-yl)nicotinamide] | ++ (Ki(cathepsin L)/Ki(calpain) ratio of ≧50) | ++ (Ki(cathepsin S)/Ki(calpain) ratio of ≧100)
≤ 40 |  | + (10≦Ki(cathepsin B)/Ki(calpain)<30) | CC(C)c1ccc2c(c1)-c1nn(-c3ncccc3C(=O)NC(Cc3ccccc3)C(=O)C(N)=O)cc1CO2 (centres unmarked) [Example 144, N-[3-Amino-2,3-dioxo-1-(phenylmethyl)propyl]-2-[8-(1-methylethyl)chromeno[4,3-c]pyrazol-2(4H)-yl]pyridine-3-carboxamide] | ++ (Ki(cathepsin L)/Ki(calpain) ratio of ≧50) | ++ (Ki(cathepsin S)/Ki(calpain) ratio of ≧100)
 |  | + (10≦Ki(cathepsin B)/Ki(calpain)<30) | NC(=O)C(=O)C(Cc1ccccc1)NC(=O)c1cccnc1-n1ccc(-c2cccc3cnccc23)n1 (centres unmarked) [Example 156, N-[3-Amino-2,3-dioxo-1-(phenylmethyl)propyl]-2-(3-isoquinolin-5-yl-1H-pyrazol-1-yl)pyridine-3-carboxamide] | + (30≦Ki(cathepsin L)/Ki(calpain)<50) | ++ (Ki(cathepsin S)/Ki(calpain) ratio of ≧100)
